Data published in patent US9618453B2, “Aggregation induced emission of fluorescent bioprobes and methods of using the same” (THE HONG KONG UNIVERSITY OF SCIENCE AND TECHNOLOGY, priority 2011, dated 2017).

Key:
[1] = target: BSA (35 Cys) (Bos taurus, UniProt P02769); test: Fluorescent labeling of Cys residues of protein with TPEMBR, SDS-PAGE; design: species or system bovine; conditions: series of dye/thiol ratios
Description: 2.5 μL Tris-HCl (1 M), 2.5 μL TCEP (20 mM), 5 μL BSA (1 mg/mL, 15 μM), and 30 μL urea (8 M in water) was added to a 1.5 mL Eppendorf tube and mixed well. The mixture was incubated at room temperature for 30 min to pre-reduce the disulfide bonds with TCEP. Then, 10 μL of the TPEMBR DMSO stock solution (2.5 mM 5×) was added to the system and made the final volume 50 μL. The reaction mixture was incubated for 3 hours at 50° C. in an Eppendorf Thermomixer. Then, samples were cooled either to room temperature for instant use or frozen for eventual use.
In order to ensure that the Cys residues were sufficiently labeled with TPEMBR, a longer reaction time (usually overnight) at or below room temperature was required. Alternatively, the reaction time could be reduced if labeling was carried out at 50° C. To verify the time-dependence of labeling efficiency, bovine serum albumin (BSA) samples were labeled with TPEMBR for different times ranging from 10 min to 4 h and analyzed by SDS-PAGE. The fluorescence intensity of the labeled BSA increased as the reaction time was extended. The maximum intensity under specific labeling conditions was observed after 3 h and remained unchanged even with an additional 1 h of reaction time (FIGS. 11a and 11b). […] The time-dependent labeling effect provides a way to determine the desirable DOL according to different applications by simply controlling the labeling time. Meanwhile, a lower temperature labeling process with a longer reaction time could be a better choice to obtain fluorescent proteins while maintaining their native structures.
BSA samples were subjected to labeling with different dye concentrations. The SDS-PAGE fluorescence intensity of labeled BSA increased with increasing dye concentration. […] Further increasing the dye concentration could give higher fluorescence intensity due to nonspecific labeling. Clearly, the DOL of protein samples can be controlled by varying the dye concentration.
Specific labeling of Cys residues by TPEMBR was examined through the labeling of proteins with different Cys contents. BSA (35 Cys), yeast enolase (single Cys) and horse myoglobin (0 Cys) were labeled with 0.5 mM of TPEMBR, respectively. The corresponding fluorescent products were analyzed on gel. […] The results further confirmed the specificity of TPEMBR to Cys residue when the working concentration of 0.5 mM was used.
BSA was labeled by each dye with a series of varying dye/thiol ratios. After the electrophoresis, the gel fluorescent image was taken under UV excitation and the fluorescence intensity was obtained from three independent experiments. Fluorescence intensities normalized with the sample with the lowest dye concentration are plotted versus the dye/thiol ratio (FIG. 16). […] This self-quenching effect is inevitable for self-quenching dyes such as 5-BMF and limits these dyes' application on quantification of proteins. In contrast, detection and quantification of proteins with high contents of Cys can be easily achieved by using AIE active molecules such as TPEMBR.

[2] = Fluorescence quantum efficiency in the solid state; format: physicochemical
Text: (§1) Tetrahydrofuran (THF; Labscan) was distilled under nitrogen from sodium benzophenone ketyl immediately prior to use. Acrylamide was purchased from Bio-Rad. Aminoallyl-dUTP (aa-dUTP), dNTPs, DNase I (RNase-free), DNA Polymerase I, Klenow Fragment exo-, Random Hexamer Primer, Long PCR Enzyme Mix and GeneJET™ PCR Purification Kit, GeneRuler™ 100 bp Plus DNA Ladder (ready-to-use, 100-3000 bp), 6×DNA Loading Dye were purchased from Fermentas (Thermo Scientific). Deep VentR™ exo-DNA Polymerase was purchased from New England Biolabs (NEB). Synthesized oligonucleotides (primers) were purchased from Tech Drogon Limited. GelRed™ Nucleic Acid Gel Stain (10000× in water) was purchased from Biotium. Other chemicals, reagents and solvents were all purchased from Aldrich or Invitrogen. ^1H and ^13C NMR spectra were measured on a Bruker ARX 400 NMR spectrometer using CDCl3 as solvent. High-resolution mass spectra (HRMS) were taken on a Finnigan TSQ 7000 triple quadrupole spectrometer in a MALDI-TOF mode. UV spectra were measured on a Milton Roy Spectronic 3000 Array spectrophotometer. Fluorescence (FL) spectra were recorded on a Perkin-Elmer LS 55 spectrofluorometer. FL quantum yields (ΦF) of amorphous powders of siloles were measured using C-701 Time-Resolved Spectrofluorometer with the integrating sphere as accessory.

[3] = Photoluminescence in THF/water mixtures with different water fractions (aggregation induced emission); format: physicochemical
Text: The AIE of TPENCS is illustrated in FIG. 1. […] With water content ranging from 0-70%, the fluorescence intensity remained at a very low level. When the water concentration was in the 80-90 vol % range, a rapid and dramatic increase of the fluorescence intensity with increasing water content was observed (FIG. 1b). The PL intensity of TPENCS in the water/THF solution with a water fraction of 90 vol % was approximately 50-fold higher than that in the mixture with 70% water. The quantum efficiency of TPENCS was 52.2% in the solid state.
Similar to other AIE active molecules, TPEMBR only gave weak emission in good solvents such as THF. […] To quantify the effect of water content on the degree of fluorescent emission enhancement, the photoluminescence intensity of TPEMBR was measured where the fraction of water was increased from 0 to 90 vol %. With the water content in the range of 0-70%, the fluorescent intensity remained at a very low level. With the water fraction reaching the 80-90 vol % range, a rapid and dramatic increase of the fluorescent intensity was observed (FIG. 9b). The photoluminescence intensity of TPEMBR in the water/THF solution with a water fraction of 90 vol % was approximately 50-fold stronger than that in the mixture with 70% water. In the solid state, the quantum efficiency of TPEMBR was determined to be 31.7%.
The AIE of SITC is illustrated in FIGS. 17a and 17b. The wavelength at maximum absorption of SITC was at 363 nm and the emission maximum was at 490 nm. […] To quantify the effect of water content on the elevation of the fluorescent emission, the photoluminescence intensity of SITC was measured with concentration of water increasing from 0 to 90 vol %. With water content ranging from 0-70%, the fluorescent intensity remained at a very low level. When the water concentration was in the 80-95 vol % range, a rapid and dramatic increase of the fluorescent intensity with increasing water content was observed (FIG. 17b). The photoluminescence intensity of SITC in the water/THF solution with a water fraction of 95 vol % was approximately 50-fold higher than that in the mixture with 70% water. The quantum efficiency of SITC was 45.8% in the solid state.
as §1
Structure of dye is confirmed by standard spectroscopic methods (FIGS. 23, 26a, and 27a). In order to confirm TPEITC is AIE-active, we investigated its fluorescence in THF/water mixtures with different water fractions. […] TPEITC molecules with hydrophobic aromatic cores precipitated and became aggregate in the nonsolvent mixture. Aggregation blocks the nonradiative relaxation channels and populates the radiative decay, thus resulting in high luminescence. […]

[4] = UV absorption of SITC for DOL calculation (Beer-Lambert law); format: physicochemical
Description: The 1061 bp template DNA was a PCR product of plasmid DNA. dTTP was replaced with increasing amount of SITC-dUTP. DOL of labeled DNA (number of dyes per 100 bases) were calculated from UV absorption base on Beer-Lambert law. The calculated molar extinction coefficient (ε) of SITC is 10277 cm^−1M^−1 and its correction factor (CF) is 2.08.

[5] = target: bovine serum albumin (BSA) (Bos taurus, UniProt P02769); test: SDS-PAGE staining of BSA with TPENCS (prestaining, poststaining), compared with CBB and FITC; conditions: for LOD / limit of detection (LOD): BSA on SDS-PAGE gel, CBB restaining of the same gel; for LOD: TPENCS poststaining; for limit of detection (LOD): TPENCS prestaining; for LOD on nitrocellulose membrane: after transfer from gel; for self-quenching effect versus F/P ratio: equal amount of BSA, series of dye concentrations
Description: The protein samples were treated with denaturizing 4× sample buffer containing 62.5 mM Tris (pH 8.5), 20% (v/v) glycerol, 4% SDS (w/v), and 3% (w/v) DTT for 5 min at 85˜95° C. in Protein Lobind Eppendorf cups. Serial dilutions of the proteins were labeled and loaded onto the gel lanes. Electrophoresis was carried out on self-cast polyacrylamide mini-gels (1 mm thick) using a discontinuous buffer system. The separation gel (pH 8.8) contained 12% polyacrylamide. The stacking gel (pH 6.8) contained 4% polyacrylamide. Both gels have an acrylamide/bis ratio of 37.5:1. The running buffer contained 25 mM Tris (pH 8.6), 192 mM glycine and 0.1% SDS (w/v) in water. All solutions were freshly prepared prior to use. SDS-PAGE was carried out on a vertical polyacrylamide gel system at a current of 15 mA until the protein bands reached the interface of the separating gel. Separation was performed at 100 V for two hours.
Fluorescence prestaining of proteins for SDS-PAGE gels was applied prior to the denaturation step. About 1 mg of the protein was dissolved in 1 mL of 0.1 M sodium bicarbonate buffer solution (15 μM). 10 μL of TPENCS DMSO stock solution (5 mM) was added to 100 μL protein solution. The pH was optimized to ˜9 by adding 1 M sodium bicarbonate buffer. The reaction mixture was incubated for 2 h at 37° C. in an Eppendorf Thermomixer. Then, samples were cooled either to room temperature for instant use or frozen for eventual use.
2.5 g of Coomassie blue R250 was dissolved in 1000 mL of 50% (v/v) methanol, 10% (v/v) acetic acid, and 40% (v/v) water with stirring as needed. The solution was filtered to remove any insoluble material. The final concentration of Coomassie blue R250 was 0.25% (w/v). After electrophoresis, the apparatus was disassembled and the gel was immerged into CBB solution. The gel was stained at room temperature overnight with gentle agitation. The Coomassie stain was removed by aspiration after staining. The gel was then immerged into the destaining solution composed of 50% (v/v) methanol, 10% (v/v) acetic acid, and 40% (v/v) water which allowed the gel to destain with gentle agitation. The destaining step was repeated several times, removing destaining solution at each change by aspiration. The destaining was continued until the protein bands were seen clearly without any background staining of the gel.
The protocol of gel fluorescent poststaining with TPENCS was similar to that of the CBB poststaining. The only difference was that the composition of the staining solution was prepared by mixing 1 mL DMSO stock solution of TPENCS (5 mM) with 20 mL 10% SDS aqueous (w/v) solution, and the pH was optimized to ˜9.0 by adding 1 M sodium bicarbonate buffer. The destaining solution was 10% SDS aqueous (w/v) solution. Similar to the destaining protocol of Coomassie brilliant blue, the gel was immerged into the 10% SDS aqueous (w/v) solution and destained with gentle agitation. The destaining solution was changed every two hours and the whole destaining process was finished within six hours.
Since nearly all kinds of proteins have reactive amine groups (lysine residues) on their molecular chains, bovine serum albumin (BSA), a commonly used protein, was employed as a test sample to verify the staining effect of TPENCS. The prestained BSA was loaded onto the gel lane b and a pure BSA sample was loaded on lane c at the same time as a control. After electrophoresis, the gel fluorescent image was taken under UV excitation within the Gel Doc XR+ documentation system (FIG. 2a). […] The gel was then introduced to the poststaining procedure and the fluorescent image was again obtained (FIG. 2b).

Chain of bovine serum albumin (BSA) (P02769 25-607): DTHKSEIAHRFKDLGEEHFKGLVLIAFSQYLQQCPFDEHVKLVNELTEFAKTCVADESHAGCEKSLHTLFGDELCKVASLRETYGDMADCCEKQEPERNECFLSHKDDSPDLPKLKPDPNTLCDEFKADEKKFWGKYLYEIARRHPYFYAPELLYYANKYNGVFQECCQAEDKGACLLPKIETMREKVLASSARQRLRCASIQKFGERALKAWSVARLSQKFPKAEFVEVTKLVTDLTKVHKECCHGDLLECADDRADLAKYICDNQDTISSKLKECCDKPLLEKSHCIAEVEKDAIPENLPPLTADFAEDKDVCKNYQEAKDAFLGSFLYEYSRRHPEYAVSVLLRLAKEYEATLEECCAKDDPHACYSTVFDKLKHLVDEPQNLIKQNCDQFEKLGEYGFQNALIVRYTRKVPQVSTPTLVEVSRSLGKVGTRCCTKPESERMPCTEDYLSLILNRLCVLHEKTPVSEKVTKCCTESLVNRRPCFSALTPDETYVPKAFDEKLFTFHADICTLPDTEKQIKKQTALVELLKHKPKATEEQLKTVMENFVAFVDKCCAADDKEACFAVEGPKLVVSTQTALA
Chain of BSA (35 Cys) (P02769 25-607): as above

O=C1OC2(c3ccc(O)cc3Oc3cc(O)ccc32)c2ccc(CBr)cc21 [5-BMF, reference compound]
self-quenching effect versus dye/thiol ratio [1]: 30 times

C[Si]1(C)C(c2ccc(CN=C=S)cc2)=C(c2ccccc2)C(c2ccccc2)=C1c1ccc(CN=C=S)cc1 [SITC, 1,1-dimethyl-2,5-bis[4-(isothiocyanatemethyl)phenyl]-3,4-diphenyl silole]
quantum efficiency [2]: 45.8%
emission maximum [3]: 490 nm
wavelength at maximum absorption [3]: 363 nm
photoluminescence intensity relative to the mixture with 70% water ([3]; water/THF solution, water fraction 95 vol %): approximately 50 fold
calculated molar extinction coefficient (ε) [4]: 10277 cm^−1M^−1
correction factor (CF) [4]: 2.08

S=C=NCc1ccc(C(=C(c2ccccc2)c2ccc(CN=C=S)cc2)c2ccccc2)cc1 [TPENCS, 1,2-bis[4-(isothiocyanatemethyl)phenyl]-1,2-diphenylethene]
quantum efficiency [2]: 52.2%
PL intensity relative to the mixture with 70% water ([3]; water/THF solution, water fraction 90 vol %): approximately 50 fold
LOD [5]: 0.1 µg
limit of detection (LOD) [5]: 0.2 µg
LOD on nitrocellulose membrane ([5]; poststaining): 1 µg
effect on protein migration ([5]; prestained versus poststained BSA bands): no significant effect on protein migration rate
LOD on nitrocellulose membrane ([5]; prestaining): 2 µg
self-quenching effect versus F/P ratio ([5]; prestaining): kept increasing

CCOc1ccc(Nc2ccc(C(=C3C=CC(=[N+](CC)Cc4cccc(S(=O)(=O)[O-])c4)C=C3)c3ccc(N(CC)Cc4cccc(S(=O)(=O)[O-])c4)cc3)cc2)cc1.[Na+] [CBB, reference compound]
LOD [5]: remained the same
limit of detection (LOD) [5]: 0.2 µg

fluorescein isothiocyanate [FITC, reference compound]
self-quenching effect versus F/P ratio ([5]; prestaining): 1000 times

S=C=NCc1ccc(C(=C(c2ccccc2)c2ccccc2)c2ccccc2)cc1 [TPEITC]
fluorescence intensity (I) relative to pure THF solution (I0) ([3]; THF/water mixture, water content 90 vol %): about 36177 fold
